Laboratory results reported in US8901119B2, “Peptide deformylase inhibitors” (GlaxoSmithKline Intellectual Property (No. 2) Limited, priority 2011, dated 2014).
In brackets after ≈: the same amount, converted by molar mass. Where two headings read alike, the source gives them in different places.

Legend:
[1] = tested on: Enterococcus faecalis X7501; test: Antimicrobial activity assay (broth microdilution MIC); format: cell-based; details: read-out: MIC, E. faecalis X7501
Method: (§1) Whole-cell antimicrobial activity was determined by broth microdilution using the Clinical and Laboratory Standards Institute (CLSI, formerly NCCLS) recommended methodology (NCCLS Document M7-A7, “Methods for Dilution Antimicrobial Susceptibility Tests for Bacteria that Grow Aerobically; Approved Standard—Seventh Edition”, 2006). Compounds were tested in serial two-fold dilutions ranging from 64 to 0.06 μg/mL against a panel of at least 11 strains. This panel consisted of the following laboratory strains: Staphylococcus aureus Oxford, Staphylococcus aureus WCUH29, Enterococcus faecalis I, Enterococcus faecalis 7 or Enterococcus faecalis X7501, Haemophilus influenzae Q1, Haemophilus influenzae NEMC1 or Haemophilus influenzae H128, Moraxella catarrhalis 1502, Streptococcus pneumoniae 1629, Streptococcus pneumoniae N1387, Streptococcus pneumoniae Ery2 and Escherichia coli 7623 or Escherichia coli 3. All compounds were also tested against Haemophilus influenzae H128 or Escherichia coli 7623 efflux minus mutants (strains in which the AcrA efflux pump had been deleted) to ascertain the extent in which the molecules were effluxed out of the bacteria. In addition, the antibacterial activity of some compounds against Streptococcus pyogenes 1307006P and Streptococcus pyogenes 1308007P was also analyzed. The minimum inhibitory concentration (MIC) was determined as the lowest concentration of compound that inhibited visible growth. A mirror reader was used to assist in determining the MIC endpoint.

[2] = tested on: Streptococcus pneumoniae 1629; test: as above; format: cell-based; details: read-out: MIC, S. pneumoniae 1629
Method: as §1

[3] = tested on: Streptococcus pyogenes 1308007P; test: as above; format: cell-based; details: read-out: MIC, S. pyogenes 1308007P
Method: as §1

[4] = tested on: Streptococcus pneumoniae N1387; test: as above; format: cell-based; details: read-out: MIC, S. pneumoniae N1387
Method: as §1

[5] = tested on: Moraxella catarrhalis 1502; test: as above; format: cell-based
Method: as §1

[6] = tested on: Streptococcus pneumoniae Ery2; test: as above; format: cell-based; details: ERY2, read-out: MIC, S. pneumoniae ERY2
Method: as §1

[7] = tested on: Haemophilus influenzae Q1; test: as above; format: cell-based
Method: as §1

Enterococcus faecalis I = test: as above; format: cell-based; details: read-out: MIC, E. faecalis I
Method: as §1

[8] = tested on: Staphylococcus aureus WCUH29; test: as above; format: cell-based; details: read-out: MIC, S. aureus WCUH29
Method: as §1

[9] = tested on: Staphylococcus aureus Oxford; test: as above; format: cell-based; details: read-out: MIC, S. aureus Oxford
Method: as §1

Escherichia coli 3 = test: as above; format: cell-based; details: read-out: MIC, E. coli 3
Method: as §1

[10] = tested on: Haemophilus influenzae H128; test: as above; format: cell-based; details: read-out: MIC, H. influenzae H128
Method: as §1

[11] = target: T1, Streptococcus pneumoniae PDF (Streptococcus pneumoniae serotype 4, UniProt Q9F2F0); test: PDF IC50 Assay 1 (FDH-coupled, absorbance 340 nm); format: biochemical; details: Assay 1 conditions; read-out: IC50, S. pneumoniae PDF activity
T1 sequence (Q9F2F0 1-203): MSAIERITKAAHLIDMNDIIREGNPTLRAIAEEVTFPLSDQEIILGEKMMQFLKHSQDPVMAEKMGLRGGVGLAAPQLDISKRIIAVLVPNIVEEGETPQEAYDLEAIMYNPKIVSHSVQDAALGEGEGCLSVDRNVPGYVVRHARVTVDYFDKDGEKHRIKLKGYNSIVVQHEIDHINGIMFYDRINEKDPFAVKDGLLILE
Method: (§2) Enzymatic activity of PDF was measured using a formate dehydrogenase (FDH)-coupled assay [Lazennec and Meinnel (1997) Anal. Biochem. 244, 180-182]. Once formate is released from methionine by PDF, it is oxidized by FDH thereby reducing one molecule of NAD to NADH and resulting in an increase in absorbance at 340 nm. Reactions were initiated by adding PDF to microtiter plates containing all other reaction components and were continuously monitored for 20 min at 25° C. The final reaction composition for the Staphylococcus aureus PDF (SaPDF) assay was 50 mM potassium phosphate, pH 7.6, 5 units/mL FDH, 7 mM NAD, 1% DMSO, 0.01% CHAPS, 1 nM SaPDF, and 3 mM formyl-Met-Ala-Ser in 40 μL total volume. Serial dilutions of inhibitors were performed in DMSO. Reagents and assay format were identical for Haemophilus influenzae PDF except that formyl-Met-Ala-Ser was 6 mM final. In the Streptococcus pneumoniae PDF assay, reaction conditions were similar but contained […] enzyme, 4 mM NAD and 4 mM formyl-Met-Ala-Ser. The varying formyl-Met-Ala-Ser concentrations reflect KM values for substrate using the different PDF isozymes. IC50s were determined by fitting to the equation: % Inhibition=100/1+(IC50/[l])^s, where s is a slope factor, l is the inhibitor concentration and the IC50 is the concentration of compound that causes 50% inhibition.

[12] = target: T2, Staphylococcus aureus PDF (SaPDF) (Staphylococcus aureus, UniProt P68826); test: PDF IC50 Assay 1 (FDH-coupled, absorbance 340 nm); format: biochemical; details: Assay 1 conditions; read-out: IC50, S. aureus PDF activity
T2 sequence (P68826 1-183): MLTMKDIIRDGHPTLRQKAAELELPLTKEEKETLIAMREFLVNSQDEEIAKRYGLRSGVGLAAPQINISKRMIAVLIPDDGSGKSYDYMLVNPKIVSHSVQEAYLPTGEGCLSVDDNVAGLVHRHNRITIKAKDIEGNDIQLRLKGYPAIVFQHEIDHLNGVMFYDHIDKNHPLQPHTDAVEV
Method: as §2

[13] = target: T3, Haemophilus influenzae PDF (Haemophilus influenzae, UniProt P44786); test: PDF IC50 Assay 1 (FDH-coupled, absorbance 340 nm); format: biochemical
Method: as §2

[14] = target: T1, Streptococcus pneumoniae PDF; test: PDF IC50 Assay 2 (FDH/NAD+/Diaphorase-coupled fluorescence); format: biochemical; details: Assay 2 conditions; read-out: IC50, S. pneumoniae PDF activity
Method: (§3) Enzymatic activity of PDF was measured using a formate dehydrogenase (FDH)/NAD+/Diaphorase-coupled Fluorescence detection assay. Once formate is released from methionine by PDF, it is oxidized by FDH, thereby reducing one molecule of NAD to NADH. Diaphorase then catalyzes the conversion of Resazurin to Resarufin using the NADH produced by the FDH reaction. The fluorescence intensity of Resarufin is monitored by excitation at 525 nm and emission at 598 nm. The reaction is assembled by first adding the NAD, f-MAS and Resazurin to each well of a 384 well plate containing 50 nl of test compounds. Reactions were initiated by adding PDF in reaction buffer containing FDH and Diaphorase. The final reaction composition for the Staphylococcus aureus PDF (SaPDF) assay was 50 mM potassium phosphate, 0.025% CHAPS pH 7.6, 0.25 units/mL FDH, 0.156 μm! Diaphorase; 0.025 mg/ml BSA; 1 mM NAD, 0.5% DMSO, 1 mM formyl-Met-Ala-Ser; 5 uM Resazurin, and 1 nM SaPDF, in 10 μL total volume. Serial dilutions of inhibitors were performed in DMSO. Reagents and assay format were identical for the Haemophilus influenzae PDF; in the Streptococcus pneumoniae PDF assays, assay composition was the same, except that […] enzyme was used. The endpoint of each reaction was chosen to ensure that all data were collected within the linear range of catalysis. IC50s were determined by fitting to the equation: % Inhibition=100/1+(IC50/[l])^s, where s is a slope factor, l is the inhibitor concentration and the IC50 is the concentration of compound that causes 50% inhibition.

[15] = target: T2, Staphylococcus aureus PDF (SaPDF); test: as above; format: biochemical; details: Assay 2 conditions; read-out: IC50, S. aureus PDF activity
Method: as §3

[16] = target: T3, Haemophilus influenzae PDF; test: as above; format: biochemical
Method: as §3

[17] = Q1, broth microdilution, read-out: MIC, H. influenzae Q1

T3 sequence (P44786 whole entry): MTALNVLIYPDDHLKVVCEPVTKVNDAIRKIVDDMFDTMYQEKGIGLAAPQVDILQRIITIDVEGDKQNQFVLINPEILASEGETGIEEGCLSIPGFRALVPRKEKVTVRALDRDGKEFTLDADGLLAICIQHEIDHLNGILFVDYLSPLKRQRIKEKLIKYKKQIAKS

Row | Structure (SMILES) | MIC [1] [µg/mL] | MIC [2] [µg/mL] | MIC [3] [µg/mL] | MIC [4] [µg/mL] | MIC [5] [µg/mL] | MIC [6] [µg/mL] | MIC [7, 17] [µg/mL] | MIC (Enterococcus faecalis I) [µg/mL] | MIC [8] [µg/mL] | MIC [9] [µg/mL] | MIC (Escherichia coli 3) [µg/mL] | MIC [10] [µg/mL] | IC50 [11] [nM] | IC50 [12] [nM] | IC50 [13] [nM] | IC50 [14] [nM] | IC50 [15] [nM] | IC50 [16] [nM] | MIC ([7]; Q1, read-out: MIC, H. influenzae Q1) [µg/mL]
1 | O=CN(O)C[C@@H](CC1CCCC1)C(=O)N1NCC[C@H]1C(=O)Nc1cccc[n+]1[O-] [Example 45, (3S)-2-((2R)-3-Cyclopentyl-2-{[formyl(hydroxy)amino]methyl}propanoyl)-N-(1-oxido-2-pyridinyl)-3-pyrazolidinecarboxamide] | 8 (≈ 19.7 µM) | 0.5 (≈ 1.23 µM) | 4 (≈ 9.87 µM) | 0.25 (≈ 0.617 µM) | ≤ 0.06 | 0.25 (≈ 0.617 µM) | 0.5 (≈ 1.23 µM) | 2 (≈ 4.93 µM) | 0.25 (≈ 0.617 µM) | 1 (≈ 2.47 µM) | 32 (≈ 78.9 µM) | 1 (≈ 2.47 µM) |  |  |  |  |  |  | 
2 | O=CN(O)C[C@@H](CC1CCCC1)C(=O)N1NCC[C@H]1C(=O)Nc1ccncn1 [Example 59, (3S)-2-((2R)-3-Cyclopentyl-2-{[formyl(hydroxy)amino]methyl}propanoyl)-N-4-pyrimidinyl-3-pyrazolidinecarboxamide] | 1 (≈ 2.56 µM) | 1 (≈ 2.56 µM) | 0.25 (≈ 0.64 µM) | 0.5 (≈ 1.28 µM) | ≤ 0.06 | 0.25 (≈ 0.64 µM) | 0.25 (≈ 0.64 µM) | 2 (≈ 5.12 µM) | ≤ 0.06 | 0.5 (≈ 1.28 µM) | 16 (≈ 41 µM) | 0.5 (≈ 1.28 µM) | ≤ 1000 | ≤ 1000 | ≤ 1000 |  |  |  | 
3 | CN(C)CCOc1nccc(NC(=O)[C@@H]2CCNN2C(=O)[C@H](CC2CCCC2)CN(O)C=O)n1 [Example 81, (3S)-2-((2R)-3-Cyclopentyl-2-{[formyl(hydroxy)amino]methyl}propanoyl)-N-(2-{[2-(dimethylamino)ethyl]oxy}-4-pyrimidinyl)-3-pyrazolidinecarboxamide] |  |  |  |  |  |  |  |  |  |  |  |  |  |  |  | ≤ 1000 | ≤ 1000 | ≤ 1000 | 
4 | O=CN(O)C[C@@H](CC1CCCC1)C(=O)N1NCC[C@H]1C(=O)Nc1ncccn1 [Example 84, (3S)-2-((2R)-3-Cyclopentyl-2-{[formyl(hydroxy)amino]methyl}propanoyl)-N-2-pyrimidinyl-3-pyrazolidinecarboxamide] | 16 (≈ 41 µM) | 1 (≈ 2.56 µM) | 0.5 (≈ 1.28 µM) | 1 (≈ 2.56 µM) | ≤ 0.06 | 1 (≈ 2.56 µM) |  | 8 (≈ 20.5 µM) | 0.125 (≈ 0.32 µM) | 0.5 (≈ 1.28 µM) | 16 (≈ 41 µM) | 0.5 (≈ 1.28 µM) |  |  |  | ≤ 1000 | ≤ 1000 | ≤ 1000 | 0.125 (≈ 0.32 µM)
5 | CN(C)Cc1nccc(NC(=O)[C@@H]2CCNN2C(=O)[C@H](CC2CCCC2)CN(O)C=O)n1 [Example 91, (3S)-2-((2R)-3-Cyclopentyl-2-{[formyl(hydroxy)amino]methyl}propanoyl)-N-{2-[(dimethylamino)methyl]-4-pyrimidinyl}-3-pyrazolidinecarboxamide] | 16 (≈ 35.8 µM) | 2 (≈ 4.47 µM) | 1 (≈ 2.23 µM) | 0.5 (≈ 1.12 µM) | ≤ 0.06 | 1 (≈ 2.23 µM) | 0.5 (≈ 1.12 µM) | 16 (≈ 35.8 µM) | 1 (≈ 2.23 µM) | 4 (≈ 8.94 µM) | 4 (≈ 8.94 µM) | 0.5 (≈ 1.12 µM) |  |  |  |  |  |  | 
6 | O=CN(O)C[C@@H](CC1CCCC1)C(=O)N1N=CC[C@H]1C(=O)Nc1ccncn1 [Example 92, (5S)-1-((2R)-3-Cyclopentyl-2-{[formyl(hydroxy)amino]methyl}propanoyl)-N-4-pyrimidinyl-4,5-dihydro-1H-pyrazole-5-carboxamide] | 1 (≈ 2.57 µM) | 0.5 (≈ 1.29 µM) | 0.5 (≈ 1.29 µM) | 0.125 (≈ 0.322 µM) | ≤ 0.06 | 0.25 (≈ 0.644 µM) | 0.5 (≈ 1.29 µM) | 1 (≈ 2.57 µM) | 0.125 (≈ 0.322 µM) | 0.25 (≈ 0.644 µM) | 16 (≈ 41.2 µM) | 0.5 (≈ 1.29 µM) |  |  |  |  |  |  | 
7 | CCCCC[C@H](CN(O)C=O)C(=O)N1NCC[C@H]1C(=O)Nc1ccc(F)cn1 [Example 100, (3S)—N-(5-Fluoro-2-pyridinyl)-2-((2R)-2-{[formyl(hydroxy)amino]methyl}heptanoyl)-3-pyrazolidinecarboxamide] |  |  |  |  |  |  |  |  |  |  |  |  | ≤ 1000 | ≤ 1000 | ≤ 1000 |  |  |  | 
8 | CCCCC[C@H](CN(O)C=O)C(=O)N1NCC[C@H]1C(=O)Nc1ccncn1 [Example 101, (3S)-2-((2R)-2-{[Formyl(hydroxy)amino]methyl}heptanoyl)-N-4-pyrimidinyl-3-pyrazolidinecarboxamide] |  |  |  |  |  |  |  |  |  |  |  |  |  |  |  | ≤ 1000 | ≤ 1000 | ≤ 1000 | 
9 | O=CN(O)C[C@@H](CC1CCCC1)C(=O)N1NCC[C@H]1C(=O)Nc1ccc(O)cc1 [Example 123, (3S)-2-((2R)-3-Cyclopentyl-2-{[formyl(hydroxy)amino]methyl}propanoyl)-N-(4-hydroxyphenyl)-3-pyrazolidinecarboxamide] |  |  |  |  |  |  |  |  |  |  |  |  |  |  |  | ≤ 1000 | ≤ 1000 | ≤ 1000 | 
